# Counter-ions that a name gives are not always drawn. Like-named read-outs stand apart in the source and are kept apart here.
# How the values were obtained:
# squalene synthetase [1] = biological target: T1, squalene synthetase (Homo sapiens, UniProt P37268); experiment: Squalene synthetase inhibitory activity, human enzyme (HepG2 microsome fraction); format: biochemical
# T1 construct: From the resulting sonicate, microsome fraction was obtained according to the same manner as that described in Experiment 1; endogenous in cells; host or cells: HepG2 human hepatoma cells (microsome fraction)
# T1 sequence (P37268 1-417): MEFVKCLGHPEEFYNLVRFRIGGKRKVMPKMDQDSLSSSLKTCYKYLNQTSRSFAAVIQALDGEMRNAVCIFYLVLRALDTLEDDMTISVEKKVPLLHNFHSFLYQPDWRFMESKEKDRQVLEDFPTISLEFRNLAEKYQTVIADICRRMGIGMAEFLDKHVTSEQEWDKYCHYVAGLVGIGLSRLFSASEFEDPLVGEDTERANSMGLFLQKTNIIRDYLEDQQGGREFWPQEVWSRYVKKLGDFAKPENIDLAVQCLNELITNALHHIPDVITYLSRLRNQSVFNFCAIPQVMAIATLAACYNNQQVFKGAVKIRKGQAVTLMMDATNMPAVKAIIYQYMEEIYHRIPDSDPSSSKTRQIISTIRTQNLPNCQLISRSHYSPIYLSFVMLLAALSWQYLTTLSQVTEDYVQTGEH
# Procedure: (§1) Squalene synthetase inhibitory activity and cholesterol biosynthesis inhibitory activity of the compounds used in the present invention were determined by the following method.
# (§2) Determination of squalene synthetase inhibitory activity
# (§3) The squalene synthetase inhibitory activity was determined as follows by using the enzyme solutions shown in Experiments 1 and 2 below.
# (§4) Each enzyme solution (Protein: 0.8 μg) prepared in Experiments 1 and 2 was added to a solution (total amount: 50 μl) containing 5 μM[1-^3 H]farnesylpyrophosphoric acid (Specific activity 25 μCi/μmole), 1 mM NADPH, 5 mM MgCl2, 6 mM glutathione, 100 mM potassium phosphate buffer (pH 7.4) and a drug to be tested (which was added as a solution thereof in water or DMSO). The mixture was allowed to react at 37° C. for 45 minutes. A mixture (150 μl) of chloroform and methanol (1:2) was added to stop the reaction. Then, chloroform (50 μl) and 3N sodium hydroxide solution (50 μl) were added. The chloroform layer (under layer, 50 μl) containing the reaction products in which the major component was squalene was mixed with toluene liquid scintillator (3 ml). The radioactivity was measured with a liquid scintillation counter.
# (§5) The squalene synthetase inhibitory activity is indicated by the concentration (IC50, molarity(M)) which inhibits the radioactivity incorporated into the chloroform layer by 50%.
# Preparation of human enzyme
# Cultivation was carried out on Dulbecco modified Eagle medium containing 10% bovine fetal serum in the presence of 5% CO2 at 37° C. The human hepatoma cells HepG2 (ca. 1×10^9 cells) were suspended in an ice-cooled buffer solution (10 ml) [100 mM potassium phosphate (pH 7.4), 30 mM nicotinamide, 2.5 mM MgCl2 ], and the cells were crushed by ultrasonication (30 seconds, twice). From the resulting sonicate, microsome fraction was obtained according to the same manner as that described in Experiment 1. This microsome fraction was suspended in an ice-cooled 100 mM potassium phosphate buffer solution (pH 7.4) so that the protein concentration became about 4 mg/ml, and this suspension was used as the enzyme liquid.
# squalene synthetase [2] = biological target: T2, squalene synthetase (Rattus norvegicus, UniProt Q02769); experiment: Squalene synthetase inhibitory activity, rat enzyme (rat liver microsome fraction); format: biochemical; details: 5 μM [1-3H]farnesylpyrophosphoric acid, pH 7.4, 37° C., 45 minutes
# T2 construct: from tissue; host or cells: liver of male SD rats (microsome fraction)
# T2 sequence (Q02769 1-416): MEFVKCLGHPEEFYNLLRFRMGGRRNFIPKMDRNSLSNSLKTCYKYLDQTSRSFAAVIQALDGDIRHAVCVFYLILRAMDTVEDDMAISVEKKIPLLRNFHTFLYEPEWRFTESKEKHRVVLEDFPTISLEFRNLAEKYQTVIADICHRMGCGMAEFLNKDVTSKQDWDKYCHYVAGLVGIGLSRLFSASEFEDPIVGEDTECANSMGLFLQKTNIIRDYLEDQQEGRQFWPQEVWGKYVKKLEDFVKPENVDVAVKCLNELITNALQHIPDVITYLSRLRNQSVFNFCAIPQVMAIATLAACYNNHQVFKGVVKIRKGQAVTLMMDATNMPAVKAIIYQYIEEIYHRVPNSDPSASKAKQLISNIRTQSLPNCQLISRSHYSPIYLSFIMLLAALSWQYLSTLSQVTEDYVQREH
# Procedure: as §1, §2, §3, §4, §5
# Preparation of rat enzyme
# SD-Male rats (6 weeks old) were bled to death followed by removal of liver. The liver (ca. 10 g) was washed with ice-cooled physiological saline, homogenized in an ice-cooled buffer solution (15 ml) [100 mM potassium phosphate (pH 7.4), 15 mM nicotinamide, 2 mM MgCl2 ] and centrifuged at 10,000×g for 20 minutes (4° C.). The resulting supernatant was further centrifuged at 105,000×g for 90 minutes (4° C.). Then, the deposit was suspended in an ice-cooled 100 mM potassium phosphate buffer solution (pH 7.4) and centrifuged at 105,000×g for 90 minutes (4° C.) again. The deposit (microsome fraction) thus obtained was suspended in an ice-cooled 100 mM potassium phosphate buffer solution (pH 7.4) so that the protein concentration became about 40 mg/ml (measured with BCA Protein Assay Kit (Pias)), and the suspension was used as the enzyme solution.
# [3] = human hepatoma HepG2 microsome fraction, 5 μM [1-3H]farnesylpyrophosphoric acid, pH 7.4, 37° C., 45 minutes, read-out: IC50, squalene synthetase inhibitory activity, Human enzyme
# [4] = read-out: IC50, squalene synthetase inhibitory activity, Rat enzyme
# [5] = IC50, squalene synthetase inhibitory activity, Rat enzyme
IC50 (squalene synthetase [1]; [3]) [nM],IC50 (squalene synthetase [2]; [4]) [nM],SMILES,IC50 (squalene synthetase [1]) [nM],IC50 (squalene synthetase [2]; [5]) [nM]
44,23,"CC(C)CCCC(C)CCCC(C)CCC(P(=O)(O)O)P(=O)(O)O (centres unmarked) [Compound No. 108, disodium 4,8,12-trimethyltridecylidene-1,1-bisphosphonate]",–,–
5800,1300,"O=P(O)(O)C(O)(CCCCCSc1ccccn1)P(=O)(O)O [Compound No. 109, trisodium 1-hydroxy-6-(2-pyridylthio)hexane-1,1-bisphosphonate]",–,–
61,44,"O=P(O)(O)C(NCCCCNc1ccccc1)P(=O)(O)O [Compound No. 110, 4-(phenylamino)butylaminomethylene-1,1-bisphosphonic acid hydrochloride]",–,–
–,–,"CCOP(=O)(O)C(NC/C=C(\C)CC/C=C(\C)CCC=C(C)C)P(=O)(O)O (centres unmarked) [Compound No. 111, (E,E)-farnesylaminomethylenebisphosphonic acid monoethyl ester monosodium salt]",22,19
–,–,"CCOP(=O)(O)C(NCCCCCCSc1ccccc1)P(=O)(O)O (centres unmarked) [Compound No. 113, 6-(phenylthio)hexylaminomethylenebisphosphonic acid monoethyl ester monosodium salt]",9.8,15
8.9,18,O=P(O)(O)C(NCCCCSc1ccccc1)P(=O)(O)O [compound 1],–,–
180,97,O=P(O)(O)C(NCCCCSc1ccccn1)P(=O)(O)O [compound 2],–,–
300,210,O=P(O)(O)C(NCCCCSc1ccncc1)P(=O)(O)O [compound 3],–,–
1300,370,CCSCCCCNC(P(=O)(O)O)P(=O)(O)O [compound 4],–,–
9100,760,CC(C)(C)SCCCCNC(P(=O)(O)O)P(=O)(O)O [compound 5],–,–
–,5.7,O=P(O)(O)C(NCCCCCSc1ccccc1)P(=O)(O)O [compound 6],–,–
18,19,O=P(O)(O)C(NCCCCCSC1CCCCC1)P(=O)(O)O [compound 7],–,–
110,68,CCSCCCCCNC(P(=O)(O)O)P(=O)(O)O [compound 8],–,–
6.3,9,O=P(O)(O)C(NCCCC[S+]([O-])c1ccccc1)P(=O)(O)O (centres unmarked) [compound 9],–,–
5.2,8.1,O=P(O)(O)C(NCCCCCOc1ccccc1)P(=O)(O)O [compound 10],–,–
1.5,3.6,O=P(O)(O)C(NCCCCCCSc1ccccc1)P(=O)(O)O [compound 11],–,–
–,6400,O=P(O)(O)C(NCCCCS(=O)(=O)c1ccccc1)P(=O)(O)O [compound 12],–,–
14,19,O=P(O)(O)C(NCCCCOc1ccc2c(c1)OCO2)P(=O)(O)O [compound 13],–,–
9.7,20,O=P(O)(O)C(NCCSCCc1ccccc1)P(=O)(O)O [compound 16],–,–

IC50 (squalene synthetase [1]; [3]) [nM],IC50 (squalene synthetase [2]; [4]) [nM],SMILES,IC50 (squalene synthetase [1]) [nM],IC50 (squalene synthetase [2]; [5]) [nM]
12,18,O=P(O)(O)C(NCCCSCc1ccccc1)P(=O)(O)O [compound 17],–,–
6400,940,O=P(O)(O)C(NC1CCCCCC1)P(=O)(O)O [compound 20],–,–
–,5500,"O=P(O)(O)C(CCCc1ccccc1)P(=O)(O)O [compound 21, 4-phenylbutylidene-1,1-bisphosphonic acid]",–,–
3.1,6,"O=P(O)(O)C(NCCCCCC[S+]([O-])c1ccccc1)P(=O)(O)O (centres unmarked) [compound 60, disodium 6-(phenylsulfinyl)hexylaminomethylenebisphosphonate]",–,–
0.47,0.58,O=P(O)(O)C(NCCCCCCCCCCSc1ccccc1)P(=O)(O)O [compound 61],–,–
2.2,4.3,CC(C)CCCC(C)CCCC(C)CCNC(P(=O)(O)O)P(=O)(O)O (centres unmarked) [compound 63],–,–
4,4.7,O=P(O)(O)C(NCCCCCC[S+]([O-])c1ccc2ccccc2c1)P(=O)(O)O (centres unmarked) [compound 66],–,–
4.6,4.5,O=P(O)(O)C(NCCCCCCCCCCC[S+]([O-])c1ccccc1)P(=O)(O)O (centres unmarked) [compound 72],–,–
7,8.8,O=P(O)(O)C(NCCCCCCCCCSc1ncccn1)P(=O)(O)O [compound 79],–,–
1800,200,O=P(O)(O)C(NCCCCCCSc1nnc2ccccn12)P(=O)(O)O [compound 81],–,–
8.4,4.3,O=P(O)(O)C(NCCCCCCSc1nc2ccccc2s1)P(=O)(O)O [compound 83],–,–
35,27,CC(C)=CCC/C(C)=C/CNC(P(=O)(O)O)P(=O)(O)O [compound 86],–,–
–,13,O=P(O)(O)C(NCCCCCSc1ccccc1)P(=O)(O)O [compound 88],–,–
–,8.1,"O=P(O)(O)C(NCCCCCCCCCCCCSc1ccccc1)P(=O)(O)O [compound 89, monosodium 12-(phenylthio)dodecylaminomethylenebisphosphonate]",–,–
20,19,CC(C)=CCC/C(C)=C/CC/C(C)=C/CNC(P(=O)(O)O)P(=O)(O)O [compound 93],–,–
6.7,6.9,CC(C)=CCC/C(C)=C/CC/C(C)=C/CNC(P(=O)(O)O)P(=O)(O)O [compound 99],–,–
12,12,O=P(O)(O)C(NCCCCCCCCCSc1ncccn1)P(=O)(O)O [compound 100],–,–
6.1,7.8,O=P(O)(O)C(NCCCCCCCCCCSc1ncccn1)P(=O)(O)O [compound 101],–,–
3,3.1,"O=P(O)(O)C(NCCCCCCCCCCCSc1ccccc1)P(=O)(O)O [compound 102, trisodium 11-(phenylthio)undecylaminomethylenebisphosphonate]",–,–

SMILES,IC50 (squalene synthetase [1]; [3]) [nM],IC50 (squalene synthetase [2]; [4]) [nM],IC50 (squalene synthetase [1]) [nM],IC50 (squalene synthetase [2]; [5]) [nM]
CCOP(=O)(OCC)C(NCCCCCc1ccccc1)P(=O)(OCC)OCC [compound 14],450,560,–,–
CCOP(=O)(OCC)C(NCCCCCSC1CCCCC1)P(=O)(OCC)OCC [compound 15],–,4100,–,–
CCOP(=O)(OCC)C(NCCSCCc1ccccc1)P(=O)(OCC)OCC [compound 18],610,790,–,–
CCOP(=O)(OCC)C(NCCCCCCSc1ccccc1)P(=O)(OCC)OCC [compound 19],6900,7500,–,–
CCOP(=O)(OCC)C(NCCCCCCSc1ccc(Cl)cc1)P(=O)(OCC)OCC [compound 28],3200,6200,–,–
